In ChEMBL document CHEMBL5226385, “The Antiangiogenic and Antitumor Effects of Scoparasin B in Non-Small-Cell Lung Cancer” (J Nat Prod, 2023):

Legend:
HUVEC = test: Antiangiogenic activity against human HUVEC cells assessed as inhibition of capillary tube-like structure formation at 15 nM incubated for 6 hrs by Matrigel based analysis; assay type: functional; design: scale not given: the % may be the effect or the level left
HMEC-1 [1] = test: Antiangiogenic activity against human HMEC-1 cells assessed as inhibition of cell migration measured after 24 hrs by Transwell migration assay; assay type: functional, cell-based; conditions: dose 5-15 nM
HMEC-1 [2] = test: Cytotoxicity against human HMEC-1 cells assessed as reduction in cell proliferation upto 25 nM measured after 48 hrs by CCK8 assay; assay type: toxicity, cell-based; conditions: hmec-1, 48 h, 0.025 µM

COc1ccc(C[C@@H]2NC(=O)[C@@]34OC(=O)O/C=C/[C@@](C)(O)C(=O)[C@@H](C)C/C=C/[C@H]3[C@H](O)[C@](C)(O)[C@@H](C)[C@@H]24)cc1 [SCOPARASIN B]
Activity (HUVEC): 100% | Activity (HMEC-1 [1]): Dose-Dependent Effect | Activity (HMEC-1 [2]): Non-Toxic
